Source: patent US20040254371A1, “New benzothiazine and benzothiadiazine compounds” (priority 2003, published 2004)

test system: AMPA receptors; test: Excitatory currents induced by AMPA in Xenopus oocytes (voltage-clamp); assay type: cell-based; details: Xenopus oocytes injected with rat cerebral cortex poly(A+) mRNA, AMPA 10 μM, 20-24° C.
Method: Study of the excitatory currents induced by AMPA in Xenopus oocytes
mRNA's are prepared from cerebral cortex of male Wistar rats by the guanidinium thiocyanate/phenol/chloroform method. The poly (A^+) mRNA's are isolated by chromatography on oligo-dT cellulose and injected at a level of 50 ng per oocyte. The oocytes are incubated for 2 to 3 days at 18° C. to permit expression of the receptors and are then stored at 8-10° C.
Electrophysiological recording is carried out in a Plexiglass® chamber at 20-24° C. in OR2 medium (J. Exp. Zool., 1973, 184, 321-334) by the “voltage-clamp” method using two electrodes, with a third electrode placed in the bath serving as reference.
All the compounds are applied via the incubation medium and the electric current is measured at the end of the application period. AMPA is used in a concentration of 10 μM. For each compound studied, the concentration that doubles (EC2X) or quintuples (EC5X) the intensity of the current induced by AMPA alone (5 to 50 nA) is determined.

`O=S1(=O)NC2CCCN2c2ccc(Oc3cccc(-c4nnn[nH]4)c3)cc21` (stereo not drawn) [Example 1, 7-[3-(1H-Tetrazol-5-yl)phenoxy]-2,3,3a,4-tetrahydro-1H-pyrrolo-[2,1-c][1,2,4]benzothiadiazine 5,5-dioxide] was tested. Which “EC2X (concentration that doubles the intensity of the current induced by AMPA alone)” value (“EC2X” below) did it give?
Its value is 0.2 µM.

What about the “EC5X (concentration that quintuples the intensity of the current induced by AMPA alone)” value (“EC5X” below) of the same compound?
The value was 0.8 µM.

Which “EC2X” value does the source give for `O=S1(=O)NC2CCCN2c2ccc(Oc3cccc(-c4ccoc4)c3)cc21` (stereo not drawn) [Example 17, 7-[3-(3-Furyl)phenoxy]-2,3,3a,4-tetrahydro-1H-pyrrolo[2,1-c][1,2,4]benzothiadiazine 5,5-dioxide] here?
Its value is 4.5 µM.

And the “EC5X” value?
Its value is 11.5 µM.

How did the “EC2X” value turn out when `O=S1(=O)NC2CCCN2c2ccc(Oc3cccc(-c4cnco4)c3)cc21` (stereo not drawn) [Example 18, 7-[3-(1,3-Oxazol-5-yl)phenoxy]-2,3,3a,4-tetrahydro-1H-pyrrolo-[2,1-c][1,2,4]benzothiadiazine 5,5-dioxide] was run?
The value was 0.66 µM.

And the “EC5X” value?
The value was 4 µM.
